Data reported in patent EP1169044B1, “USE OF FUCOSYLATED SIALYLATED N-ACETYL LACTOSAMINE CARBOHYDRATE STRUCTURES FOR INHIBITION OF BACTERIAL ADHERENCE” (Borén, Thomas, priority 1999, dated 2000).

Tests used:
Assay type in all cases: binding, Helicobacter pylori
[1] = system: CCUG 17875 and the babA1A2 double mutant; assay: H. pylori adherence to immobilized neoglycoconjugates in ELISA; settings: strain not specified (CCUG 17875 and babA1A2 double mutant tested)
Procedure: CCUG 17875 (75) and the babA1A2 double mutant (DM) were added to the ELISA in a series labelled A-F. Adherent bacteria were detected by polyclonal rabbit antisera against H. pylori CCUG 17875. The products of the horseradish peroxidase reaction were quantified in a microtiter plate reader.
Sialyl-Lewis a-PAA, sialyl-Lewis x-PAA, 3'-HSO3-Lewis a-PAA, and 3'-HSO3-Lewis x-PAA, i.e. synthesised sialylated or sulphated Lewis antigens conjugated to polyacrylamide backbone were obtained from Syntesome GmbH, Munchen, Germany. The conjugates were added in dilution series of 1µg, 100ng, and 10 ng, in 90µl 1% BSA PBS 0.05% Tween, to streptavidin coated microtiter (ELISA) plates (Roche Diagnostics Scandinavia AB, Bromma, Sweden). After one hour of incubation in room temperature, the plate was blocked over night at 4°C, with 500ng biotinylated albumin in 300µl 1% BSA PBS 0.005% Tween. […] Adherent bacteria were detected by polyclonal rabbit antisera at a dilution of 1:3000, raised against formalin fixed bacteria of strain CCUG 17875 in New Zealand rabbits (Agrisera AB, Vännäsby, Sweden) The antibodies were allowed to incubate in 1% BSA in PBS 0.05% Tween for 30 minutes at room temperature. […] The products of the horseradish peroxidase reaction were quantified in a microtiter plate reader at 490 nm.

H. pylori strains = assay: radio immuno analysis (RIA) with 125I-labelled neoglycoconjugates; settings: strains of Fig. 4 (BabA2 mutant, babA1A2 mutant, CCUG 17875, CCUG 17874), 400 ng conjugate, 30 min
Procedure: Bars, from the left to the right; The sialyl-alfa2.61actose-, sialyl-alfa2.31actose-, sialyl-Lewis a-, sialyl-Lewis x-, and Lewis b-, synthesised sialyl-Lewis x- sialyl-acetyllactosaminee, both with a either a 3 carbon or 14 carbon (extended/hydrophilic) spacer, conjugated to albumin, Finally, the histo-blood group antigen Lewis y (synthesised penta-saccharide) (V. Behar and S.J. Danishefsky, Angew. Chem. Int. Ed. Engi, 1994, 33, no. 14, 1468.), was analysed as a neo-glycoconjugate.
The sialyl-alfa2.3lactose-, sialyl-alfa2.61actose-, sialyl-Lewis a-, and Lewis b-oligosaccharide antigens used for neoglycoconjugate preparations were purified by HPLC, structurally identified and characterized with NMR-spectroscopy, and more than 95% pure. These conjugates were attached to albumin with an APD (acetylphenylenediamine) spacer attached to the carbohydrate by reductive animation and thus the terminal reducing monosaccharide unit of the oligosaccharide is reduced and is present as an aminoalditol, IsoSep AB, Tullinge, Sweden (T. Borén, P. Falk, K. A. Roth, G. Larson, and S. Normark, Science. 262, 1892 (1993), P. D. Rye, Nature Biotechnology 2, 155 (1996)). The synthesised sialyl-Lewis x- tetrasaccharide antigen was conjugated to albumin with the MPE (mercaptopropionyl-amidoethyl) -spacer, IsoSep AB. Synthesised sialyl-Lewis x-tetrasaccharide and sialyl-acetyllactosaminee, both with a either a 3 carbon or 14 carbon (extended/hydrophilic) spacer, conjugated to albumin, were obtained from Dextra Laboratories, Reading, UK. The RIA (Fig. 4) was performed according to (P. Falk, T. Borén, D. Haslam, M. G. Caparon, Meth. Cell Biol. 45, 161 (1994)) with minor modifications; the glycoconjugates were ^125I-labelled by the Chloramine T method. 1 ml of bacteria (A600= OD 0.10) was incubated with 400 ng of ^125I-labelled conjugate (that is an excess of receptor substrate) for 30 min. in phosphate buffered saline (PBS), 0.5 % albumin, 0.05 % Tween-20 (BB-buffer). After centrifugation, the ^125I-activity bound to the bacterial pellet was measured by gamma scintillation counting. Binding experiments were reproducible and performed in triplets. In addition, the level of binding-activity within the strain was stabile.

[2] = system: 91 Swedish clinical H. pylori isolates; settings: out of 91 clinical isolates
Procedure: Bacteria were grown at 37°C in 10 % CO2 and 5% O2 (T. Borén, P. Falk, K. A. Roth, G. Larson, and S. Normark, Science.. 262, 1892(1993), for 2 days for optimal Le b antigen binding activity.

Row | Compound | binding to immobilised antigen in ELISA (in words) [1] | binding of 125I-labelled neoglycoconjugate (in words) (H. pylori strains) | binding of 125I-labelled neoglycoconjugate (in words) (H. pylori strains; listed as Lewis y pentasacharide antigen) | number of isolates that bound the neoglycoconjugate antigen [2]
1 | HSO3-3Galβ4GlcNAcβ3Galβ4Glc 3 Fucα1 [3'HSO3Lewis x] | no binding above background |  |  | 
2 | HSO3-3Galβ3GlcNAcβ3Galβ4Glc 4 Fucα1 [3'HSO3Lewis a] | no binding above background |  |  | 
3 | CC(=O)NC1C(OC2C(O)C(O)OC(CO)C2O)OC(CO)C(OC2OC(CO)C(O)C(O)C2OC2OC(C)C(O)C(O)C2O)C1OC1OC(C)C(O)C(O)C1O (centres unmarked) [Lewis y penta-saccharide antigen, Fucα2Galβ4GlcNAcβ3Gal 3 Fucα1] |  | did not demonstrate any binding activity | did not detect any binding activity | None
